For data set [1], the target named is T1, Integrin alpha-4/beta-1 (Homo sapiens, UniProt P05556+P13612). Kind of data set: Inhibition of very late antigen-4 alpha4-beta1 (VLA-4), I-VCAM-Ig as radioligand. Format: protein-complex assay.
A short description of data set [2]: Oral bioavailability in rat (Sprague-Dawley) (dose 1 mg/kg i.v.). The conditions noted are these: in vivo. Format: ADME, organism-based.
A short description of data set [3]: Oral bioavailability in rat (Sprague-Dawley) (dose 2 mg/kg). It is filed as ADME, organism-based. The settings on record: in vivo.
In data set [4] the target is T1, Integrin alpha-4/beta-1. In words: Inhibition of I-VCAM-Ig binding to Very late antigen 4 (VLA-4). Format: protein-complex assay.
Data set [5] can be described thus: Oral bioavailability in rat (Sprague-Dawley). It is filed as ADME, organism-based. The settings on record: in vivo.

T1 sequence (P05556 whole entry): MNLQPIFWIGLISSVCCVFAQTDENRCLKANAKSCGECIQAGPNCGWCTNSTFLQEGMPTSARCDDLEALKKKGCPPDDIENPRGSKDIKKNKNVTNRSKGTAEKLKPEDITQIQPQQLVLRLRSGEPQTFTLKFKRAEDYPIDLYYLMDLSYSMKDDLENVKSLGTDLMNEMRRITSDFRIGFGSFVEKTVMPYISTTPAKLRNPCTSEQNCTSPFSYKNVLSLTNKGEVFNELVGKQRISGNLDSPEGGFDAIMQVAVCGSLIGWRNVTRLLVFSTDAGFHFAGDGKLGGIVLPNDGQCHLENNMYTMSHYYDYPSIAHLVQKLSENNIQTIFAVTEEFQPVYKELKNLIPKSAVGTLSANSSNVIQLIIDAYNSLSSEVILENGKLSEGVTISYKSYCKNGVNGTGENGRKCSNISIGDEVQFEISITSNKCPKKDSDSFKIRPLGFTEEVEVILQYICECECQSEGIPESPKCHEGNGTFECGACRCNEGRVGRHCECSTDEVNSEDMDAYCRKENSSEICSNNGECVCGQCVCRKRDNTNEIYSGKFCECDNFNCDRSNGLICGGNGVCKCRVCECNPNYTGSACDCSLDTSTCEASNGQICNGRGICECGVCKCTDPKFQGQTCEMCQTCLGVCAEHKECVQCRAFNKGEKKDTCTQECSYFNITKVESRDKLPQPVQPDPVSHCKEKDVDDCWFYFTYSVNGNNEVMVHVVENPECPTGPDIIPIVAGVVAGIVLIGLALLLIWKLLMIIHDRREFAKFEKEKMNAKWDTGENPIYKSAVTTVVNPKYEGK
T1 sequence (P13612 whole entry): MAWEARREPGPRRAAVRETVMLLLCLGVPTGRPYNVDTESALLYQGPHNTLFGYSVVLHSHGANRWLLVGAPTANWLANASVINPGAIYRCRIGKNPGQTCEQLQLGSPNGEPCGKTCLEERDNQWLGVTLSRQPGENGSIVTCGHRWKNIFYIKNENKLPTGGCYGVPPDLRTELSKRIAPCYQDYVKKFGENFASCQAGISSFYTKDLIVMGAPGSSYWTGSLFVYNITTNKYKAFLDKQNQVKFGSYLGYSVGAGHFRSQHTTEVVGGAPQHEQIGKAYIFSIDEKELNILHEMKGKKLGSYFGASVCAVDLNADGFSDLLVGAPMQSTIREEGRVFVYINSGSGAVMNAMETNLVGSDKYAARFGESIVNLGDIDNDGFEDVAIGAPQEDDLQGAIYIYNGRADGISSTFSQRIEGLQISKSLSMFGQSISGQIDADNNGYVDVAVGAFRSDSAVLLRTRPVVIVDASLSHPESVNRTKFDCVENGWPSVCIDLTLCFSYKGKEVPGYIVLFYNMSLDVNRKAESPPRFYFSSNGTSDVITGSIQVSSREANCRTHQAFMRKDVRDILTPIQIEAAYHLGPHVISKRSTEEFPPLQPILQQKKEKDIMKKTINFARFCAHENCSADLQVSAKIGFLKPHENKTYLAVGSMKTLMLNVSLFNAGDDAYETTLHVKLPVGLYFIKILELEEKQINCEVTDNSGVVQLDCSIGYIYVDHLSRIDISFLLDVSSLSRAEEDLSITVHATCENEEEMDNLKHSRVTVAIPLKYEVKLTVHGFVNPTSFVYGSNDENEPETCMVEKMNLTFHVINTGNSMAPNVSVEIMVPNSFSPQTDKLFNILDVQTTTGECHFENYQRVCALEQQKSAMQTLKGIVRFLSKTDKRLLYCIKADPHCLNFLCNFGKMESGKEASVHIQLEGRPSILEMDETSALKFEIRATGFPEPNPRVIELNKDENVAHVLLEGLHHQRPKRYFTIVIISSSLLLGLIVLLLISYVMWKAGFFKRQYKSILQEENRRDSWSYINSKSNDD

Compound `C[C@]1(C(=O)N[C@@H](Cc2ccc(-n3ccccc3=O)cc2)C(=O)O)CCCO1` registered an IC50 at Integrin alpha-4/beta-1 [1] of 12.9 nM. Moreover, the bioavailability in data set [2] and in data set [3] was 27% throughout.
Compound `COc1ccccc1-c1ccc(C[C@H](NC(=O)C2CCCO2)C(=O)O)cc1` (stereo partly specified) showed an IC50 on Integrin alpha-4/beta-1 [1] of 1.7 nM.
On Integrin alpha-4/beta-1 [4], `COc1ccccc1-c1ccc(C[C@H](NC(=O)[C@@]2(C)CCCO2)C(=O)O)cc1` returned an IC50 of 13.7 nM.
Take `COc1ccccc1-c1ccc(C[C@H](NC(=O)C2(C)CCCO2)C(=O)O)cc1` (stereo partly specified): the bioavailability in data set [5] was 72%. The 50% inhibitory concentration (IC50) on Integrin alpha-4/beta-1 [4] worked out at 3.9 nM.
`C[C@]1(C(=O)N[C@@H](Cc2ccc(-c3ccccc3OC3CC3)cc2)C(=O)O)CCCO1` gave a concentration for half-maximal inhibition (IC50) on Integrin alpha-4/beta-1 [1] of 3.9 nM. Also, the bioavailability in data set [2] and in data set [3] was 76% throughout.
In the case of `COc1cccc(OC)c1-c1ccc(C[C@H](NC(=O)[C@@]2(C)CCCO2)C(=O)O)cc1`, the bioavailability in data set [2] and in data set [3] was 42% throughout. The compound also returned an IC50 at Integrin alpha-4/beta-1 [4] of 0.3 nM.
For the compound `COc1ccccc1-c1ccc(C[C@H](NC(=O)C2(C)CCCS2(=O)=O)C(=O)O)cc1` (stereo partly specified), the IC50 on Integrin alpha-4/beta-1 [1] was 1.3 nM. In data set [5], this compound returned a bioavailability of 6%.
`COc1ccccc1-c1ccc(C[C@H](NC(=O)N2CCC=N2)C(=O)O)cc1` yielded a 50% inhibitory concentration (IC50) on Integrin alpha-4/beta-1 [1] of 19.3 nM.
Still for that read-out and setting: the value for `C[C@]1(C(=O)N[C@@H](Cc2ccc(-c3ccccc3C#N)cc2)C(=O)O)CCCO1` was 11 nM; that for `COc1ccccc1-c1ccc(C[C@H](NC(=O)C2CCCC2)C(=O)O)cc1` was 63 nM.
Regarding `COc1ccccc1-c1ccc(C[C@H](NC(=O)C2CCCCO2)C(=O)O)cc1` (stereo partly specified), the IC50 on Integrin alpha-4/beta-1 [1] is 4.9 nM.
In the case of `COc1ccccc1-c1ccc(C[C@@H](NC(=O)[C@@]2(C)CCCO2)C(=O)O)cc1`, the bioavailability in data set [2] and in data set [3] was 57% in each case. Further, the IC50 on Integrin alpha-4/beta-1 [4] turned out to be 2.7 nM.
`COc1ccccc1-c1ccc(C[C@H](NC(=O)N2CCCN2S(=O)(=O)c2cc(Cl)cc(Cl)c2)C(=O)O)cc1` showed an IC50 on Integrin alpha-4/beta-1 [1] of 0.88 nM.
At Integrin alpha-4/beta-1 [1], `C[C@]1(C(=O)N[C@@H](Cc2ccc(NC(=O)c3c(Cl)cncc3Cl)cc2)C(=O)O)CCCO1` registered an IC50 of 0.2 nM.
Regarding `COc1ccccc1-c1ccc(C[C@H](NC(=O)[C@@H]2CCCN2)C(=O)O)cc1`, the IC50 on Integrin alpha-4/beta-1 [1] turned out to be 11 nM.
At Integrin alpha-4/beta-1 [1], `C[C@]1(C(=O)N[C@@H](Cc2ccc(-c3c(OC4CC4)cccc3OC3CC3)cc2)C(=O)O)CCCO1` returned an IC50 of 2.4 nM.
Same read-out and setting: the value for `COc1ccccc1-c1ccc(C[C@H](NC(=O)N2CCCC2)C(=O)O)cc1` was 17 nM.
`COc1ccccc1-c1ccc(C[C@H](NC(=O)C2CCOC2)C(=O)O)cc1` (stereo partly specified): the 50% inhibitory concentration (IC50) on Integrin alpha-4/beta-1 [1] stood at 36 nM.
On Integrin alpha-4/beta-1 [1], `COc1ccccc1-c1ccc(C[C@H](NC(=O)C2CCC(=O)N2)C(=O)O)cc1` (stereo partly specified) displayed a half-maximal inhibitory concentration (IC50) of 2.8 nM.
In turn, `C[C@]1(C(=O)N[C@@H](Cc2ccc(-n3ccn(Cc4ccccc4)c3=O)cc2)C(=O)O)CCCO1` returned a half-inhibitory concentration (IC50) at Integrin alpha-4/beta-1 [1] of 4.1 nM.
The compound `COc1ccccc1-c1ccc(C[C@H](NC(=O)C2CCCS2(=O)=O)C(=O)O)cc1` (stereo partly specified) gave an IC50 on Integrin alpha-4/beta-1 [1] of 2.1 nM.

The term IC50 denotes the point on the concentration scale where inhibition reaches its midpoint. A high value points to weaker potency in that assay. Broadly, the bioavailability is the share of a dose that reaches the circulation, judged against a reference dose that is usually intravenous. Low readings indicate little systemic uptake, high ones much systemic uptake.
